Data: patent US20210300936A1, “PYRAZOLOTRIAZOLOPYRIMIDINE DERIVATIVES AS A2A RECEPTOR ANTAGONIST” (BEIGENE, LTD., priority 2018, published 2021)

molecular target: human A2A receptor (A2AR) (Homo sapiens, UniProt P29274); experiment: Luciferase reporter assay (HEK293-A2AR-luc2p/CRE/Hygro cells, 3 nM CGS21680); type: cell-based; settings: 3 nM CGS21680, 5 h incubation
In short: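 HEK293 cells stably expressing A2AR with a CRE-luc2P reporter were seeded in 1% FBS with 1 U/mL adenosine deaminase. After 18 h, cells got 3 nM CGS21680 plus antagonist at 0.1–10000 nM for 5 h, followed by a luciferase readout. IC50 is relative to the 3 nM CGS21680 signal, set as 100%.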

Sequence of human A2A receptor (A2AR) (P29274 whole entry): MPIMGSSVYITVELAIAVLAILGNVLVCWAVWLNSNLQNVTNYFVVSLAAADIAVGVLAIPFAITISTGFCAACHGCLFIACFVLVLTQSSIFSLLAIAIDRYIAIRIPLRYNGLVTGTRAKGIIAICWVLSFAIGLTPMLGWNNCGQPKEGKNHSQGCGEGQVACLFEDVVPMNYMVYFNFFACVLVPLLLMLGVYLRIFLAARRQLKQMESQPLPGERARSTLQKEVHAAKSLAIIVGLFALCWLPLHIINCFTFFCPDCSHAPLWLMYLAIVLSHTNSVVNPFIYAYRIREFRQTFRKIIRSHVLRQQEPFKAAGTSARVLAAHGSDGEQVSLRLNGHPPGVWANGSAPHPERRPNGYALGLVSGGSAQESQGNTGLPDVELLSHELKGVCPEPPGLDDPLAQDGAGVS

SMILES | IC50 [nM]
COCCOc1ccc(N2CCN(C(=O)C(c3ccccc3OC)n3ncc4c3nc(N)n3nc(-c5ccco5)nc43)CC2)cc1 (single isomer, unassigned) [Compound A31b] | 0.1
COCCOc1ccc(N2CCN(C(=O)C(c3cccc(OC)c3)n3ncc4c3nc(N)n3nc(-c5ccco5)nc43)CC2)cc1 (stereo not shown) [Compound A41, 2-(5-amino-2-(furan-2-yl)-7H-pyrazolo[4,3-e][1,2,4]triazolo[1,5-c]pyrimidin-7-yl)-1-(4-(4-(2-methoxyethoxy)phenyl)piperazin-1-yl)-2-(3-methoxyphenyl)ethan-1-one] | 5.8
COCCOc1ccc(N2CCN(C(=O)C(c3ccccc3C(F)(F)F)n3ncc4c3nc(N)n3nc(-c5ccco5)nc43)CC2)cc1 (stereo not shown) [Compound A38, 2-(5-amino-2-(furan-2-yl)-7H-pyrazolo[4,3-e][1,2,4]triazolo[1,5-c]pyrimidin-7-yl)-1-(4-(4-(2-methoxyethoxy)phenyl)piperazin-1-yl)-2-(2-(trifluoromethyl)phenyl)ethan-1-one] | 0.6
COCCOc1ccc(N2CCN(C(=O)C(c3ccccc3)n3ncc4c3nc(N)n3nc(-c5ccco5)nc43)C[C@@H]2C)cc1 (stereo partly drawn) [Compound A46, 2-(5-amino-2-(furan-2-yl)-7H-pyrazolo[4,3-e][1,2,4]triazolo[1,5-c]pyrimidin-7-yl)-1-((S)-4-(4-(2-methoxyethoxy)phenyl)-3-methylpiperazin-1-yl)-2-phenylethan-1-one] | 2.9
COCCOc1ccc(N2CCN(C(=O)C(CC(C)C)n3ncc4c3nc(N)n3nc(-c5ccco5)nc43)CC2)cc1 (stereo not shown) [Compound A16, 2-(5-amino-2-(furan-2-yl)-7H-pyrazolo[4,3-e][1,2,4]triazolo[1,5-c]pyrimidin-7-yl)-1-(4-(4-(2-methoxyethoxy)phenyl)piperazin-1-yl)-4-methylpentan-1-one] | 1.3
COCCOc1ccc(N2CCN(C(=O)C(c3ccccc3)n3ncc4c3nc(N)n3nc(-c5ccco5)nc43)C(C)C2)cc1 (single isomer, unassigned) [Compound A50a] | 88.2
CCC(C(=O)N1CCN(c2ccc(OCCOCCOC)cc2)CC1)n1ncc2c1nc(N)n1nc(-c3ccco3)nc21 (stereo not shown) [Compound A8, 2-(5-amino-2-(furan-2-yl)-7H-pyrazolo[4,3-e][1,2,4]triazolo[1,5-c]pyrimidin-7-yl)-1-(4-(4-(2-(2-methoxyethoxy)ethoxy)phenyl)piperazin-1-yl)butan-1-one] | 41.5
COCCOc1ccc(N2CCN(C(=O)C(c3ccccc3F)n3ncc4c3nc(N)n3nc(-c5ccco5)nc43)CC2)cc1 (single isomer, unassigned) [Compound A43a] | 16.1
COCCOc1ccc(N2CCN(C(=O)C(COC)n3ncc4c3nc(N)n3nc(-c5ccco5)nc43)CC2)cc1 (stereo not shown) [Compound A26, 2-(5-amino-2-(furan-2-yl)-7H-pyrazolo[4,3-e][1,2,4]triazolo[1,5-c]pyrimidin-7-yl)-3-methoxy-1-(4-(4-(2-methoxyethoxy)phenyl)piperazin-1-yl)propan-1-one] | 43.8
CCCCC(C(=O)N1CCN(c2ccc(OCCOC)cc2)CC1)n1ncc2c1nc(N)n1nc(-c3ccco3)nc21 (stereo not shown) [Compound A10, 2-(5-amino-2-(furan-2-yl)-7H-pyrazolo[4,3-e][1,2,4]triazolo[1,5-c]pyrimidin-7-yl)-1-(4-(4-(2-methoxyethoxy)phenyl)piperazin-1-yl)hexan-1-one] | 6.3
CCCCC(C(=O)N1CCN(c2ccc(OCCNC)cc2)CC1)n1ncc2c1nc(N)n1nc(-c3ccco3)nc21 (stereo not shown) [Compound A35, 2-(5-amino-2-(furan-2-yl)-7H-pyrazolo[4,3-e][1,2,4]triazolo[1,5-c]pyrimidin-7-yl)-1-(4-(4-(2-(methylamino)ethoxy)phenyl)piperazin-1-yl)hexan-1-one] | 5.8
CCCC(C(=O)N1CCN(c2ccc(F)cc2)CC1)n1ncc2c1nc(N)n1nc(-c3ccco3)nc21 (stereo not shown) [Compound A45, 2-(5-amino-2-(furan-2-yl)-7H-pyrazolo[4,3-e][1,2,4]triazolo[1,5-c]pyrimidin-7-yl)-1-(4-(4-fluorophenyl)piperazin-1-yl)pentan-1-one] | 6
CCC(C(=O)N1CCN(c2ccc(OCCOC)cc2)CC1)n1ncc2c1nc(N)n1nc(-c3ccco3)nc21 (stereo not shown) [Compound A4, 2-(5-amino-2-(furan-2-yl)-7H-pyrazolo[4,3-e][1,2,4]triazolo[1,5-c]pyrimidin-7-yl)-1-(4-(4-(2-methoxyethoxy)phenyl)piperazin-1-yl)butan-1-one] | 43.5

Now from value to molecule:

IC50 [nM] | SMILES
13.8 | CC(C(=O)N1CCN(c2cccc(C(=O)N3CCCCC3)c2)CC1)(c1ccccc1)n1ncc2c1nc(N)n1nc(-c3ccco3)nc21 (stereo not shown) [Compound A89, 2-(5-amino-2-(furan-2-yl)-7H-pyrazolo[4,3-e][1,2,4]triazolo[1,5-c]pyrimidin-7-yl)-2-phenyl-1-(4-(3-(piperidine-1-carbonyl)phenyl)piperazin-1-yl)propan-1-one]
1 | COCCOc1ccc(N2CCN(C(=O)C(c3ccccc3)n3ncc4c3nc(N)n3nc(-c5ccco5)nc43)C(C)C2)cc1 (single isomer, unassigned) [Compound A50b]
28.6 | CC(C(=O)N1CCN(c2ccccc2C(=O)N2CCCCC2)CC1)(c1ccccc1)n1ncc2c1nc(N)n1nc(-c3ccco3)nc21 (stereo not shown) [Compound A99, 2-(5-amino-2-(furan-2-yl)-7H-pyrazolo[4,3-e][1,2,4]triazolo[1,5-c]pyrimidin-7-yl)-2-phenyl-1-(4-(2-(piperidine-1-carbonyl)phenyl)piperazin-1-yl)propan-1-one]
90.2 | COCCOCCOc1ccc(N2CCN(C(=O)C(CC(C)C)n3cc4c(nc(N)n5nc(-c6ccco6)nc45)n3)CC2)cc1 (stereo not shown) [Compound C18, 2-(5-amino-2-(furan-2-yl)-8H-pyrazolo[4,3-e][1,2,4]triazolo[1,5-c]pyrimidin-8-yl)-1-(4-(4-(2-(2-methoxyethoxy)ethoxy)phenyl)piperazin-1-yl)-4-methylpentan-1-one]
4.9 | CN1CCN(CCCOc2ccc(N3CCN(C(=O)[C@@](C)(c4ccccc4)n4ncc5c4nc(N)n4nc(-c6ccco6)nc54)CC3)cc2)CC1 [Compound A82b, (R)-2-(5-amino-2-(furan-2-yl)-7H-pyrazolo[4,3-e][1,2,4]triazolo[1,5-c]pyrimidin-7-yl)-1-(4-(4-(3-(4-methylpiperazin-1-yl)propoxy)phenyl)piperazin-1-yl)-2-phenylpropan-1-one]
168 | COCCOc1ccc(N2CCN(C(=O)C(C3CC3)n3cc4c(nc(N)n5nc(-c6ccco6)nc45)n3)CC2)cc1 (single isomer, unassigned) [Compound C16b]
126 | CCCCC(C(=O)N1CCN(c2ccc(OCCOC)cc2)CC1)n1cc2c(nc(N)n3nc(-c4ccco4)nc23)n1 (stereo not shown) [Compound C10, 2-(5-amino-2-(furan-2-yl)-8H-pyrazolo[4,3-e][1,2,4]triazolo[1,5-c]pyrimidin-8-yl)-1-(4-(4-(2-methoxyethoxy)phenyl)piperazin-1-yl)hexan-1-one]
100 | CCCC(C(=O)N1CCN(c2ccc(F)cc2F)CC1)n1cc2c(nc(N)n3nc(-c4ccco4)nc23)n1 (stereo not shown) [Compound C21, 2-(5-amino-2-(furan-2-yl)-8H-pyrazolo[4,3-e][1,2,4]triazolo[1,5-c]pyrimidin-8-yl)-1-(4-(2,4-difluorophenyl)piperazin-1-yl)pentan-1-one]
3180 | COCCOCCOc1ccc(N2CCN(C(=O)C(C)(C)n3cc4c(nc(N)n5nc(-c6ccco6)nc45)n3)CC2)cc1 [Compound C6, 2-(5-amino-2-(furan-2-yl)-8H-pyrazolo[4,3-e][1,2,4]triazolo[1,5-c]pyrimidin-8-yl)-1-(4-(4-(2-(2-methoxyethoxy)ethoxy)phenyl)piperazin-1-yl)-2-methylpropan-1-one]
7.5 | CN(C)CCOc1ccc(N2CCN(C(=O)C(C)(c3ccccc3)n3ncc4c3nc(N)n3nc(-c5ccco5)nc43)CC2)cc1 (stereo not shown) [Compound A71, 2-(5-amino-2-(furan-2-yl)-7H-pyrazolo[4,3-e][1,2,4]triazolo[1,5-c]pyrimidin-7-yl)-1-(4-(4-(2-(dimethylamino)ethoxy)phenyl)piperazin-1-yl)-2-phenylpropan-1-one]
0.5 | Nc1nc2c(cnn2C(C(=O)N2CCN(c3ccc(OCCO)cc3)CC2)c2ccccc2)c2nc(-c3ccco3)nn12 (stereo not shown) [Compound A61, 2-(5-amino-2-(furan-2-yl)-7H-pyrazolo[4,3-e][1,2,4]triazolo[1,5-c]pyrimidin-7-yl)-1-(4-(4-(2-hydroxyethoxy)phenyl)piperazin-1-yl)-2-phenylethan-1-one]
76.5 | CO[C@H]1CCN(C(=O)C(C)(c2ccccc2)n2ncc3c2nc(N)n2nc(-c4ccco4)nc32)C1 (stereo partly drawn) [Compound B29, 2-(5-amino-2-(furan-2-yl)-7H-pyrazolo[4,3-e][1,2,4]triazolo[1,5-c]pyrimidin-7-yl)-1-((S)-3-methoxypyrrolidin-1-yl)-2-phenylpropan-1-one]
7.3 | CC(C(=O)N1CCN(c2ccc(OCCCN3CCOCC3)cc2)CC1)(c1ccccc1)n1ncc2c1nc(N)n1nc(-c3ccco3)nc21 (stereo not shown) [Compound A76, 2-(5-amino-2-(furan-2-yl)-7H-pyrazolo[4,3-e][1,2,4]triazolo[1,5-c]pyrimidin-7-yl)-1-(4-(4-(3-morpholinopropoxy)phenyl)piperazin-1-yl)-2-phenylpropan-1-one]
6.4 | COCCOc1ccc(N2CCN(C(=O)C(C)(c3cccc(C)c3)n3ncc4c3nc(N)n3nc(-c5ccco5)nc43)CC2)cc1 (stereo not shown) [Compound A75, 2-(5-amino-2-(furan-2-yl)-7H-pyrazolo[4,3-e][1,2,4]triazolo[1,5-c]pyrimidin-7-yl)-1-(4-(4-(2-methoxyethoxy)phenyl)piperazin-1-yl)-2-(m-tolyl)propan-1-one]
19.1 | C[C@@](C(=O)N1CCN(c2ccc(OCCCN3CCOCC3)cc2)CC1)(c1ccccc1)n1ncc2c1nc(N)n1nc(-c3ccco3)nc21 [Compound A76a, (S)-2-(5-amino-2-(furan-2-yl)-7H-pyrazolo[4,3-e][1,2,4]triazolo[1,5-c]pyrimidin-7-yl)-1-(4-(4-(3-morpholinopropoxy)phenyl)piperazin-1-yl)-2-phenylpropan-1-one]
